Source: patent publication US20120015063A1, “COMPOSITION FOR TREATMENT AND/OR PREVENTION OF SKIN DISORDER” (priority 2009, published 2012)

How the values were obtained:
hyaluronic acid (HA) = experiment: Identification of GAG in skin extract by cellulose acetate membrane electrophoresis (Example 2); assay type: in vivo, Hos: HR-1 hairless mice; settings: 0.24% glucosamine-mixed diet, UV-irradiated
Protocol: After the grouping, UV-irradiated groups were irradiated with UV light three times a week. Specifically, for the first week, 1 minute of UV irradiation was carried out. For the second week, 2 minutes of UV irradiation, and for the third and fourth week, 3 minutes of UV irradiation were conducted. From the fourth week to the time of dissection completed, 4 minutes of UV irradiation were carried out. The total irradiation amount was 1.35 J. In addition, moisture content and an amount of food ingested were measured twice a week, and body weight was measured once a week.
A UVB lump GL20SE (SANKYO DENKI) was used to carry out UV irradiation having irradiation intensity of 0.3 mW/cm^2. […] Irradiation intensity was adjusted by using a digital ultraviolet light intensity meter, UV-340 (AS ONE Corporation). During irradiation, mice were left for one and a half hour in an individualized cage having a size of 9 cm×5 cm×4 cm. […]

[1] = test system: hairless mice of a photoaging model; experiment: Skin moisture content by CORNEOMETER CM825, mixed-diet administration (Example 2); assay type: in vivo, Hos: HR-1 hairless mice; settings: 0.24% glucosamine-mixed diet
type I collagen = experiment: Quantification of type I collagen in skin extract by SDS-PAGE and Western blotting (Example 2); assay type: in vivo, Hos: HR-1 hairless mice; settings: 0.24% glucosamine-mixed diet, UV-irradiated
Protocol: After the grouping, UV-irradiated groups were irradiated with UV light three times a week. Specifically, for the first week, 1 minute of UV irradiation was carried out. For the second week, 2 minutes of UV irradiation, and for the third and fourth week, 3 minutes of UV irradiation were conducted. From the fourth week to the time of dissection completed, 4 minutes of UV irradiation were carried out.
A UVB lump GL20SE (SANKYO DENKI) was used to carry out UV irradiation having irradiation intensity of 0.3 mW/cm^2. […] Irradiation intensity was adjusted by using a digital ultraviolet light intensity meter, UV-340 (AS ONE Corporation). During irradiation, mice were left for one and a half hour in an individualized cage having a size of 9 cm×5 cm×4 cm. In order to decrease a difference in irradiation intensity for respective cages, the mice were irradiated while subjected to a rotation in every occasion.
A frozen and crushed skin was degreased using methanol for 24 hours. Then, an appropriate amount of PBS (−) containing protease inhibitors was added, and the sample was stirred with a rotator and washed twice to remove serum components, etc. […]

[2] = test system: hairless mice of a photoaging model; experiment: Histological analysis of HE-stained dorsal skin (epidermis thickness, edema), mixed-diet administration (Example 2); assay type: in vivo, Hos: HR-1 hairless mice; settings: 0.24% glucosamine-mixed diet
carbonyl proteins = experiment: Quantification of carbonyl proteins in skin tissue by Oxyblot Western blotting (Example 2); assay type: in vivo, Hos: HR-1 hairless mice; settings: 0.24% glucosamine-mixed diet, UV-irradiated
Protocol: After one week of acclimatization, 54 six-week-old male Hos: HR-1 hairless mice were used in experiments. The below-described diet was used, and the mice were reared under conditions at 25° C. while keeping a free access to food and water. In addition, during measurements of the skin moisture content, a humidity meter was used to determine humidity in an animal room. All experiments were conducted under approval (No. 19-76) of Animal Care and Use Committee of Tokyo University of Agriculture and Technology.
Preparation of an administration diet was ordered to Oriental Yeast Co., Ltd. First, 0.072% mangosteen pericarp extract-mixed diet and 0.15% mangosteen pericarp extract-mixed diet were used. In addition, 0.24% glucosamine-mixed diet was used as a positive control, and CRF-1 diet was used as a negative control. A daily amount of mangosteen pericarp extract ingested was set to 120 mg/kg body weight for the 0.072% group, and set to 250 mg/kg body weight for the 0.15% group as a rough guideline.
A study schedule is illustrated in FIG. 1. A study period was set to 8 weeks, and the study was carried out from October to December in 2007. […] The total irradiation amount was 1.35 J. In addition, moisture content and an amount of food ingested were measured twice a week, and body weight was measured once a week. […]

[3] = test system: hairless mice, UVB irradiation; experiment: Skin moisture content by CORNEOMETER CM 825, oral forced administration (Example 3); assay type: in vivo; settings: 20 mg/ml collagen solution, 0.1 ml/10 g body weight orally daily, UV-irradiated (collagen (+) group)
Protocol: Skin moisture content was measured using CORNEOMETER® CM825 (manufactured by COURAGE+KHAZAKA electronic GMBH) twice a week, the measurement being carried out by contacting a probe onto a lumbar region of a mouse prior to UVB irradiation. The measurements were conducted five times, and the average of them was designated as a measured value.
An administration sample employed a mangosteen pericarp formulation. Specifically, a formulation having a ratio of a mangosteen pericarp extract:gum arabic=1:1 was used. One having only gum arabic was used as a control, and collagen was used as a positive control. Solutions having respective concentrations were prepared. A solution having a concentration of 0.1 ml/10 g body weight was orally administered every day during the rearing period by using a stomach tube. Two kinds (a high concentration (24 mg/ml) and a low concentration (12 mg/ml)) of a solution containing a mangosteen pericarp extract were prepared. Then, 24 mg/ml of a gum arabic solution and 20 mg/ml of a collagen solution were prepared.
After 1 week of acclimatization, grouping was conducted based on skin moisture content and viscoelasticity. […]

Row | Compound | band intensity of HA (control (−) set to 1) (hyaluronic acid (HA)) | skin moisture content at week 8 ([1]; UV-irradiated (GlcN (+) group)) | skin moisture content compared to control (+) ([1]; UV-irradiated, weeks 7 and 8) | type I collagen band intensity (control (−) set to 1; average of α-chain and β-chain) (type I collagen) | thickness of the epidermis compared to control (−) ([2]; UV-irradiated) | thickness of the epidermis ([2]; UV-irradiated (GlcN (+) group)) | carbonyl protein band intensity (control (−) set to 1) (carbonyl proteins) | skin moisture content at week 7 [3]
1 | N[C@H]1C(O)O[C@H](CO)[C@@H](O)[C@@H]1O (some centres unmarked) [GlcN, glucosamine] | 0.58 | 62.96±2.78 | significant increase | 1.25 | significant increase in the thickness of the epidermis | 39.46±9.56 μm | 1.63 | –
2 | collagen | – | – | – | – | – | – | – | 68.54±2.91
